Ring closure, isolated yield data for ten compounds are collected here from PMC6107497.

This series is described as follows: Pd(II)-catalysed intramolecular ortho C(sp2)-H olefination (oxidative Heck-type aryl-alkenyl C-C bond) of peptide aryl/benzyl/thienyl sulfonamides with pendant acrylate or unactivated terminal alkene; Pd(OAc)2 10 mol%, AgOAc 2.0 equiv. To be noted: 1,2-dichloroethane (DCE), 50.0 mM, 80.0 °C, 24.0 h.

On to `COC(=O)[C@@H]1COC(=O)C=Cc2ccsc2S(=O)(=O)N[C@@H](COC(C)(C)C)C(=O)NCC(=O)N2CCC[C@H]2C(=O)N1` [(thiophene-2-SO2)-Ser(tBu)-Gly-Pro-Ser(O-acryloyl)-OMe], for which the ring closure, isolated yield (from C=CC(=O)OC[C@H](NC(=O)[C@@H]1CCCN1C(=O)CNC(=O)[C@H](COC(C)(C)C)NS(=O)(=O)c1cccs1)C(=O)OC, 19-membered ring) came to 53%.

In the case of `COC(=O)[C@@H]1COC(=O)C=Cc2ccsc2S(=O)(=O)N[C@@H](C(C)(C)C)C(=O)NCC(=O)N2CCC[C@H]2C(=O)N1` [(thiophene-2-SO2)-tLeu-Gly-Pro-Ser(O-acryloyl)-OMe], where the note is “from C=CC(=O)OC[C@H](NC(=O)[C@@H]1CCCN1C(=O)CNC(=O)[C@@H](NS(=O)(=O)c1cccs1)C(C)(C)C)C(=O)OC, 19-membered ring”, the ring closure, isolated yield stood at 59%. Turning to `COC(=O)[C@@H]1COC(=O)C=Cc2ccccc2CS(=O)(=O)N[C@@H](C(C)(C)C)C(=O)NCC(=O)NCC(=O)NCC(=O)N1` [PhCH2SO2-tLeu-Gly-Gly-Gly-Ser(O-acryloyl)-OMe], the ring closure, isolated yield (from C=CC(=O)OC[C@H](NC(=O)CNC(=O)CNC(=O)CNC(=O)[C@@H](NS(=O)(=O)Cc1ccccc1)C(C)(C)C)C(=O)OC, 23-membered ring) stood at 34%.

In the case of `COC(=O)[C@@H]1COC(=O)C=Cc2ccccc2CS(=O)(=O)N[C@@H](C(C)(C)C)C(=O)NCC(=O)NCC(=O)N1` [PhCH2SO2-tLeu-Gly-Gly-Ser(O-acryloyl)-OMe], the ring closure, isolated yield (from C=CC(=O)OC[C@H](NC(=O)CNC(=O)CNC(=O)[C@@H](NS(=O)(=O)Cc1ccccc1)C(C)(C)C)C(=O)OC, 20-membered ring) was found to be 45%. As to `COC(=O)[C@@H]1Cc2ccc(cc2)OC(=O)C=Cc2ccccc2CS(=O)(=O)N[C@@H](C(C)(C)C)C(=O)NCC(=O)N2CCC[C@H]2C(=O)N1` [PhCH2SO2-tLeu-Gly-Pro-Tyr(O-acryloyl)-OMe], the ring closure, isolated yield (from C=CC(=O)Oc1ccc(C[C@H](NC(=O)[C@@H]2CCCN2C(=O)CNC(=O)[C@@H](NS(=O)(=O)Cc2ccccc2)C(C)(C)C)C(=O)OC)cc1, 24-membered ring) worked out at 72%. With `COC(=O)[C@@H]1COC(=O)C=Cc2ccccc2CS(=O)(=O)N[C@@H](C(C)(C)C)C(=O)NCC(=O)N1` [PhCH2SO2-tLeu-Gly-Ser(O-acryloyl)-OMe], the ring closure, isolated yield (from C=CC(=O)OC[C@H](NC(=O)CNC(=O)[C@@H](NS(=O)(=O)Cc1ccccc1)C(C)(C)C)C(=O)OC, 17-membered ring) came out at 58%. Regarding `COC(=O)[C@@H]1COC(=O)CCC=Cc2ccccc2CS(=O)(=O)N[C@@H](C(C)(C)C)C(=O)NCC(=O)N1` [PhCH2SO2-tLeu-Gly-Ser(O-pent-4-enoyl)-OMe], under “from C=CCCC(=O)OC[C@H](NC(=O)CNC(=O)[C@@H](NS(=O)(=O)Cc1ccccc1)C(C)(C)C)C(=O)OC, 19-membered ring”, the ring closure, isolated yield was found to be 53%. For the compound `COC(=O)[C@@H]1COC(=O)C=Cc2ccccc2CS(=O)(=O)N[C@@H](C(C)(C)C)C(=O)N1` [PhCH2SO2-tLeu-Ser(O-acryloyl)-OMe], the ring closure, isolated yield (from C=CC(=O)OC[C@H](NC(=O)[C@@H](NS(=O)(=O)Cc1ccccc1)C(C)(C)C)C(=O)OC, 14-membered ring) is 52%. For `COC(=O)[C@@H]1COC(=O)C=Cc2ccccc2S(=O)(=O)N[C@@H](C(C)(C)C)C(=O)NCC(=O)N2CCC[C@H]2C(=O)N1` [PhSO2-tLeu-Gly-Pro-Ser(O-acryloyl)-OMe], where the note is “from C=CC(=O)OC[C@H](NC(=O)[C@@H]1CCCN1C(=O)CNC(=O)[C@@H](NS(=O)(=O)c1ccccc1)C(C)(C)C)C(=O)OC, 19-membered ring”, the ring closure, isolated yield is 67%. Regarding `COC(=O)[C@@H]1Cc2ccc(cc2)OCC=Cc2ccccc2S(=O)(=O)N[C@@H](C(C)(C)C)C(=O)NCC(=O)N2CCC[C@H]2C(=O)N1` [PhSO2-tLeu-Gly-Pro-Tyr(O-allyl)-OMe], where the note is “from C=CCOc1ccc(C[C@H](NC(=O)[C@@H]2CCCN2C(=O)CNC(=O)[C@@H](NS(=O)(=O)c2ccccc2)C(C)(C)C)C(=O)OC)cc1, 23-membered ring”, the ring closure, isolated yield is 61%.
